Experimental data taken from the CheMixHub viscosity set.

Experiment: xn = mol fraction of the nth substance listed

C[C@H](N)C(=O)N[C@@H](CCC(N)=O)C(=O)O + O
Conditions | viscosity [mPa·s]
298.15 K, 101 kPa, x1 = 0.0008999 | 0.919

CCCCCCCCCCCCCCCCCCO + CCCO
298.15 K, 101 kPa
Conditions | viscosity [mPa·s]
x1 = 0.0016 | 2.071
x1 = 0.0028 | 2.011
x1 = 0.0106 | 2.164
x1 = 0.0212 | 2.332

C=C(C)C(=O)OC + CC#N
viscosity [mPa·s], 101 kPa
Conditions | 298.15 K | 303.15 K | 308.15 K | 313.15 K | 318.15 K
x2 = 0.0688 | 0.5536 | 0.5171 | 0.4878 | 0.4643 | 0.4465
x2 = 0.1376 | 0.5439 | 0.5091 | 0.4811 | 0.4585 | 0.4413
x2 = 0.1957 | 0.5346 | 0.5013 | 0.4745 | 0.4526 | 0.4359
x2 = 0.2716 | 0.5214 | 0.4899 | 0.4643 | 0.4435 | 0.4275
x2 = 0.3344 | 0.5094 | 0.4795 | 0.455 | 0.435 | 0.4194
x2 = 0.4135 | 0.4932 | 0.4651 | 0.442 | 0.423 | 0.4079
x2 = 0.4916 | 0.4761 | 0.4498 | 0.4281 | 0.41 | 0.3954
x2 = 0.5649 | 0.4592 | 0.4344 | 0.4138 | 0.3967 | 0.3825
x2 = 0.6386 | 0.4413 | 0.4183 | 0.3988 | 0.3825 | 0.3687
x2 = 0.7084 | 0.4238 | 0.4023 | 0.3839 | 0.3683 | 0.3549
x2 = 0.7927 | 0.402 | 0.3823 | 0.3652 | 0.3505 | 0.3375
x2 = 0.855 | 0.3855 | 0.3672 | 0.351 | 0.3367 | 0.324
x2 = 0.9073 | 0.3714 | 0.3541 | 0.3387 | 0.3249 | 0.3123
x2 = 0.9497 | 0.3599 | 0.3435 | 0.3286 | 0.3152 | 0.3028

CCCC[P+](C)(CCCC)CCCC.COS(=O)(=O)[O-] + CN1CCCC1=O
101 kPa
Conditions | viscosity [mPa·s]
293.15 K, x1 = 0.2318 | 67.31
293.15 K, x1 = 0.6014 | 285.4
293.15 K, x1 = 0.7129 | 437.9
293.15 K, x1 = 0.8086 | 533
293.15 K, x1 = 0.9022 | 633.1
293.15 K, x1 = 0.9468 | 676.8
298.15 K, x1 = 0.2318 | 38.93
298.15 K, x1 = 0.2971 | 50.57
298.15 K, x1 = 0.3764 | 80.09
298.15 K, x1 = 0.7129 | 294.9
298.15 K, x1 = 0.8086 | 370.8
298.15 K, x1 = 0.8515 | 411.3
298.15 K, x1 = 0.9022 | 451.1
298.15 K, x1 = 0.9468 | 487
303.15 K, x1 = 0.0914 | 4.938
303.15 K, x1 = 0.1311 | 7.781
303.15 K, x1 = 0.2971 | 25.25
303.15 K, x1 = 0.3764 | 40.12
303.15 K, x1 = 0.4752 | 65.25
303.15 K, x1 = 0.8086 | 262.4
303.15 K, x1 = 0.8515 | 295.9
303.15 K, x1 = 0.9022 | 328.3
303.15 K, x1 = 0.9468 | 353.5
308.15 K, x1 = 0.0914 | 2.514
308.15 K, x1 = 0.1311 | 3.429
308.15 K, x1 = 0.1773 | 6.412
308.15 K, x1 = 0.2318 | 8.924
308.15 K, x1 = 0.4752 | 30.51
308.15 K, x1 = 0.6014 | 66.52
308.15 K, x1 = 0.9468 | 268.4
313.15 K, x1 = 0.1311 | 3.214
313.15 K, x1 = 0.1773 | 4.514
313.15 K, x1 = 0.2318 | 6.789
313.15 K, x1 = 0.7129 | 95.25
318.15 K, x1 = 0.1311 | 4.512
318.15 K, x1 = 0.1773 | 6.412
318.15 K, x1 = 0.2318 | 7.124
318.15 K, x1 = 0.6014 | 31.78
318.15 K, x1 = 0.7129 | 72.62
323.15 K, x1 = 0.0914 | 2.515
323.15 K, x1 = 0.1311 | 3.845
323.15 K, x1 = 0.1773 | 5.672
323.15 K, x1 = 0.7129 | 59.09
323.15 K, x1 = 0.8086 | 88.33

CCCC[n+]1ccn(C)c1.O=C([O-])C(F)(F)F + ClC(Cl)Cl
Conditions | viscosity [mPa·s]
298.15 K, 101 kPa, x2 = 0.6467 | 9.74

CCCC[P+](C)(CCCC)CCCC.COS(=O)(=O)[O-] + CN(C)C=O
100 kPa
Conditions | viscosity [mPa·s]
293.15 K, x1 = 0.4272 | 67.15
303.15 K, x1 = 0.8837 | 286.5
318.15 K, x1 = 0.6717 | 59.15
323.15 K, x1 = 0.7768 | 84.15

C=C(C)C(=O)OC + CCC(C)O
viscosity [mPa·s], 101.3 kPa
Conditions | 298.15 K | 308.15 K
x1 = 0.0597 | 2.462 | 2.057
x1 = 0.1551 | 1.779 | 1.481
x1 = 0.255 | 1.32 | 1.097
x1 = 0.3562 | 1.022 | 0.848
x1 = 0.4561 | 0.83 | 0.688
x1 = 0.5021 | 0.766 | 0.635
x1 = 0.5571 | 0.704 | 0.584
x1 = 0.6562 | 0.626 | 0.52
x1 = 0.7557 | 0.581 | 0.484
x1 = 0.8552 | 0.564 | 0.472
x1 = 0.9549 | 0.572 | 0.481

ClCCCCCCCl + Cc1ccccc1C
viscosity [mPa·s], 101 kPa
Conditions | x1 = 0.09207 | x1 = 0.1778 | x1 = 0.2577 | x1 = 0.3658 | x1 = 0.469 | x1 = 0.5509 | x1 = 0.6697 | x1 = 0.7481 | x1 = 0.8853
308.15 K | 0.731 | 0.797 | 0.859 | 0.954 | 1.049 | 1.131 | 1.253 | 1.336 | 1.493
313.15 K | 0.689 | 0.75 | 0.809 | 0.901 | 0.994 | 1.073 | 1.191 | 1.272 | 1.419
318.15 K | 0.652 | 0.708 | 0.767 | 0.848 | 0.932 | 1.001 | 1.1 | 1.169 | 1.287
